Experimental data published in patent publication US5482975A, “Adenosine diphosphoribose polymerase binding nitroso aromatic compounds useful as retroviral inactivating agents, anti-retroviral agents and anti-tumor agents” (priority 1993, dated 1996).

Columns and labels:
ADPRT = conditions: cited from earlier work
calf thymus ADPRT = biological target: T1, calf thymus ADPRT (Bos taurus, UniProt P18493); test: ADPRT polymerase activity inhibition / inactivation; format: biochemical
T1 construct: from tissue; host or cells: calf thymus
Procedure: | Polymerization at 25° C. for 4 minutes.

anti-tumor and anti-HIV = test: biological action of nitroso compounds (anti-tumor and anti-HIV, summary); format: cell-based; conditions: for anti-tumor and anti-HIV activity: effective even after exposure of cells as short as 30 minutes
[1] = tested on: human leukemia cell lines (855-2, H9, HL-60, K562); test: [3H] thymidine uptake, human leukemia cell lines together; format: cell-based; conditions: 10 μM; each of the cell lines tested
H9 cells = test: [3H] thymidine uptake, H9 cells (FIG. 2B); format: cell-based, human; conditions: 10% FCS
K562 cells = test: [3H] thymidine uptake, K562 cells (FIG. 2D); format: cell-based, human; conditions: 10% fetal bovine serum
855-2 cells [2] = test: [3H] thymidine uptake / growth, 855-2 cells (FIG. 2A, E, F; FIG. 3); format: cell-based, human; conditions: for relative inhibition: 1 μM; for relative inhibition / inhibition / inhibitory effects with different growth factors: 10% fetal bovine serum; for inhibitory effects with different growth factors: AGF or BCGF
Procedure: FIGS. 2A-2F are a composite of graphs displaying the inhibitory effects of the ADRPT ligands on (FIG. 2A) 855-2 cells (a cell line of human B-cell lineage acute lymphoblastic leukemia), (FIG. 2B) H9 cells (a cell line of human T-cell lineage acute lymphoblastic leukemia), FIG. (2C) HL-60 cells (a cell line of human acute nonlymphoblastic leukemia) and (FIG. 2D) K562 cells (a cell line of human chronic myelogenous leukemia). These cells were cultured while under the influence of the growth factors in 10% fetal bovine serum (FCS), whereas in (FIG. 2E) and (FIG. 2F) the 855-2 cells were cultured in the presence of autocrine growth factor activity (AGF) or low molecular weight-B-cell growth factor (BCGF, a T-cell derived lymphokine), respectively.
Experiments using HL-60 cells (FIG. 2C) provided similar conclusions.
855-2 cells that were grown in media with (1) 10% fetal bovine serum, (2) autocrine growth factor (AGF) and (3) low molecular weight-BCGF (a T cell derived lymphokine) were exposed to increasing concentrations of the ADRPT ligands.

HIV-1 = test: inhibition of HIV infection, virus titer in stimulated human lymphoblasts; format: cell-based; conditions: 30 min exposure, day 10, virus alone 5.25
Procedure: VIII. Anti-HIV action of NOBP, NOBA and NOQ on stimulated human lymphoblasts.
Exposure to the two drugs was only for 30 minutes at the commencement of viral infection, and drugs were never re-added. The results given in Table III provide the ID50 of HIV titer 10 days after infection of cell cultures with HIV.

855-2 cells [3] = test: cytocidal activity, MTT assay; format: cell-based, human; conditions: 10 μM; 100,000 cells/ml
Procedure: MTT (3-[4,5-[…]]-2,5-diphenyltetrazolium bromide) at 1 mg/ml was then added for 16 hours. The absorbance of the pelleted cell was then measured at 550 nm after adding DMSO to solubilze the cells.

[4] = tested on: normal rhesus bone marrow stem cells; test: CFU stem cell toxicity assay (FIG. 5A)
Zn(HIV1-F1) = Zn(HIV1-F1) (Human immunodeficiency virus type 1 lw12.3 isolate, UniProt Q70622); conditions: cited from earlier work
[5] = tested on: various cancer cells (855-2, HL-60, D32, D37, CRL 7712, 186 medulla, L1210, MDA-468); test: functions of various cancer cells in presence of compounds (FIGS. 4-9); format: cell-based; conditions: summary statement
Procedure: (§1) Experiments were performed in which the functions of various cancer cells (855-2 and HL-60 leukemia cells, D32, D37 and CRL 7712 glioblastoma cell lines, 186 medulla tumor cell line, L1210 murine leukemia cell line, MDA-468 human breast tumor cell line) and normal cells (neutrophil leukocytes and bone marrow or peripheral blood stream cells) were assessed in the absence or presence of the compounds.

855-2 cells [6] = test: colony formation (CFU) of leukemic cells in semi-solid medium (FIG. 4); format: cell-based, human
Procedure: as §1

HL-60 cells = test: as above; format: cell-based, human
Procedure: as §1

855-2 leukemia cells = test: growth inhibition of 855-2 cells, comparison with vincristine (FIG. 7); format: cell-based, human
Procedure: Vincristine, a highly toxic chemotherapeutic compound, is currently used in the treatment of leukemia and other malignancies. […] Vincristine was tested in doses of 0.1, 1, 10 and 100 μM.

[7] = tested on: normal cells (neutrophil leukocytes and bone marrow or peripheral blood cells)
Procedure: as §1

Human Neutrophils = test: superoxide generation by human neutrophils; conditions: 10 μM; mean + S.D., n = 11; PMN + PMA
[8] = not told

T1 sequence (P18493 whole entry): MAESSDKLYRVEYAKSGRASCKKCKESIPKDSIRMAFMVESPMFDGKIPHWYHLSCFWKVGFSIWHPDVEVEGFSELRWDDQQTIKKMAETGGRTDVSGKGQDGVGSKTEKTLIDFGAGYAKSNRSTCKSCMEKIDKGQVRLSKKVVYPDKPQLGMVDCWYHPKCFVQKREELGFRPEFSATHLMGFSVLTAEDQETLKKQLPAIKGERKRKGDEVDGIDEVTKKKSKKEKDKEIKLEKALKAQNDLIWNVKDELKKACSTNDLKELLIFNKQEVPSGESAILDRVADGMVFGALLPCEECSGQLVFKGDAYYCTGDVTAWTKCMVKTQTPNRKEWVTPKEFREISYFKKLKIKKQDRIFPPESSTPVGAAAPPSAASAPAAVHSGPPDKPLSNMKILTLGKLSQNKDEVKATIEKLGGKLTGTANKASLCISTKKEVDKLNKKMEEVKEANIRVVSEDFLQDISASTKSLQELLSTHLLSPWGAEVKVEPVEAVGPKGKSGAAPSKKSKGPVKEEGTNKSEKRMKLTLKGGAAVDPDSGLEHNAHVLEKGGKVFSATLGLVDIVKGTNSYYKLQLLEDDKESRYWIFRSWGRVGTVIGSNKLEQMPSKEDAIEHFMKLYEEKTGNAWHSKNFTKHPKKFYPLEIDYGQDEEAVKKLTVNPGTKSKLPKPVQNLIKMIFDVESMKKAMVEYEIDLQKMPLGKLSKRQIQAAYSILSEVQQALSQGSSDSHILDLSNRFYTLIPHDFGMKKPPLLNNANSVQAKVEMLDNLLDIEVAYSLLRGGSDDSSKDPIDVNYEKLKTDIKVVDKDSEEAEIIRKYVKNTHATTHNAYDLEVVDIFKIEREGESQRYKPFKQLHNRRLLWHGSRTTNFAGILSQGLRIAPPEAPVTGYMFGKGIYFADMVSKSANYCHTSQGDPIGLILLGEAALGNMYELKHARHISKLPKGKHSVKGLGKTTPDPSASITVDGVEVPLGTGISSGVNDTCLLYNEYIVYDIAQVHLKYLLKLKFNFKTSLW

3-aminonaphthylhydrazide
ADPRT polymerase activity inhibition (ADPRT): known to inhibit ADPRT polymerase activity

5(7)-nitroso-1(2H)-isoquinolinone [NOQ]
IC50 (calf thymus ADPRT; 25° C., 4 minutes, pH 7.5, read-out: I50 (concentration that inhibits ADPRT enzyme activity 50%)): 13 µM
anti-tumor and anti-HIV activity (anti-tumor and anti-HIV): highly active
inhibition of 3H-thymidine uptake [1]: powerfully inhibited
inhibition of thymidine uptake (H9 cells; 10 μM): almost complete inhibition
relative potency (H9 cells): most potent inhibitor
inhibition of cell growth (K562 cells; 10 μM): almost complete inhibition
relative potency (K562 cells): most potent inhibitors
relative inhibition (855-2 cells [2]): somewhat more inhibition than NOBP
inhibition (855-2 cells [2]; 10 μM): almost complete inhibition
inhibitory effects with different growth factors (855-2 cells [2]): potent inhibitory effects
Virus Titer (log ID50) (HIV-1; 10 μM): 1.73 log ID50
cell killing (855-2 cells [3]): complete killing

Nc1ccc2oc(=O)ccc2c1 [ABP, 6-amino-1,2-benzopyrone]
Virus Titer (log ID50) (HIV-1; 500 μM): 4.50 log ID50
ADPRT binding (ADPRT): binds specifically to ADRPT at the site that also binds to DNA
CFU stem cell toxicity ([4]; 1 μM): toxic

O=C(O)CN(CCN(CC(=O)O)CC(=O)O)CC(=O)O [EDTA]
molar excess required to remove zinc from Zn(HIV1-F1) (Zn(HIV1-F1)): 10 fold

Nc1ccc2oc(=O)ccc2c1I [IABP, 5-iodo-6-amino-1,2-benzopyrone]
Virus Titer (log ID50) (HIV-1; 250 μM): 4.66 log ID50
ADPRT polymerase activity inhibition (ADPRT): known ADPRT polymerase activity inhibitors
CFU stem cell toxicity ([4]; 250 μM): toxic

O=c1ccc2cc([N+](=O)[O-])ccc2o1 [NO2 BP, 6-nitro-1,2-benzopyrone, reference compound]
effectiveness against tumor cells [5]: almost ineffective
Virus Titer (log ID50) (HIV-1; 250 μM): 4.93 log ID50

O=Nc1ccc2oc(=O)ccc2c1 [NOBP, 6-nitroso-1,2-benzopyrone]
anti-tumor and anti-HIV activity (anti-tumor and anti-HIV): highly active
inhibition of 3H-thymidine uptake [1]: powerfully inhibited
inhibition of thymidine uptake (H9 cells; 100 μM): almost complete inhibition
inhibition of cell growth (K562 cells; 10 μM): almost complete inhibition
inhibition of cell growth (K562 cells; 100 μM): almost complete inhibition
relative potency (K562 cells): most potent inhibitors
relative inhibition (855-2 cells [2]): somewhat more inhibition than NOBA
growth arrest in increasing FCS (855-2 cells [2]; 10 μM, increasing FCS concentrations): Growth arrest occurs irrespective of the concentration of FCS
inhibition (855-2 cells [2]; 10 μM): almost complete inhibition
inhibitory effects with different growth factors (855-2 cells [2]): potent inhibitory effects
effectiveness against tumor cells [5]: highly effective
ability to form colonies (CFU) (855-2 cells [6]): inhibit the ability
ability to form colonies (CFU) (HL-60 cells): inhibit the ability
times more potent than vincristine (855-2 leukemia cells; equal concentration): about 10 times
Virus Titer (log ID50) (HIV-1; 10 μM): 2.01 log ID50
cell killing (855-2 cells [3]): complete killing
effect on colony formation by normal cells [7]: minimal effect on normal cells
effect on viability of normal cells [7]: not to affect adversely the viability of normal cells
toxicity to normal cells [7]: not toxic to normal cells
Generation of Superoxide by Human Neutrophils (Human Neutrophils): 34.1 ± 14.1 nmol 02^- /hr/10^5 cells

NC(=O)c1ccccc1 [benzamide]
ADPRT polymerase activity inhibition (ADPRT): known to inhibit ADPRT polymerase activity

O=Nc1ccc2oc(=O)ccc2c1I [compound 6, 5-iodo-6-nitroso-1,2-benzopyrone, reference compound]
inhibition of ADPRT (calf thymus ADPRT): relatively poor inhibitor
biological action, times weaker than 6-N-1,2-benzopyrone (anti-tumor and anti-HIV; relative to 6-nitroso-1,2-benzopyrone): 10 times
permeation [8]: poor permeant molecule

O=c1ccc2ccccc2o1 [coumarin, 1,2-benzopyrone]
ADPRT binding (ADPRT): inhibitory ligand
ADPRT polymerase activity inhibition (ADPRT): known to inhibit ADPRT polymerase activity

c1ccc2cnccc2c1 [isoquinoline]
ADPRT polymerase activity inhibition (ADPRT): known to inhibit ADPRT polymerase activity

O=c1c(O)c(-c2ccc(O)c(O)c2)oc2cc(O)cc(O)c12 [quercetin]
ADPRT polymerase activity inhibition (ADPRT): known to inhibit ADPRT polymerase activity

CC[C@]1(O)C[C@H]2CN(CCc3c([nH]c4ccccc34)[C@@](C(=O)OC)(c3cc4c(cc3OC)N(C=O)[C@H]3[C@@](O)(C(=O)OC)[C@H](OC(C)=O)[C@]5(CC)C=CCN6CC[C@]43[C@@H]65)C2)C1 [vincristine, reference compound]
concentration required for same growth inhibition as 10 μM NOBP (855-2 leukemia cells; in vitro): 100 µM
